Test systems include SF-268 CNS; SNB-19 CNS; NCI-H522 lung; NCI/ADR-RES ovarian; OVCAR-3 ovarian; HOP-92 NSCLC; HCT-15 colon; HT29 colon; SF-295 CNS; RPMI-8226 leukemia.
Common to all, as to assay: NCI anticancer screen, dose series, 48 h

We go through 9 compounds from PubChem BioAssay (NCI).

“And” between values parts separate entries of the source, which are not always exact repeats. Equal values may be shown once.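 Dose response: 5 concentrations. Exposure: 48 h. Format: 96-well plates. Endpoint: linear interpolation; highest concentration if not reached. Here, GI50 denotes the concentration required for 50% inhibition of growth. TGI is the concentration that stops growth completely.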

On to `O=c1c(Br)ccc(Br)cc1Br`, for which the GI50 in the assay with SF-268 CNS is 2.62 µM; in the assay with SNB-19 CNS, 11.7 µM; in the assay with NCI-H522 lung it was 0.17 µM; in the assay with NCI/ADR-RES ovarian it was 2.56 µM; in the assay with OVCAR-3 ovarian, 0.926 µM; in the assay on HOP-92 NSCLC, 1.53 µM. Further, the GI50 with HCT-15 colon is 0.752 µM; in the assay with HT29 colon, 1.77 µM; with SF-295 CNS it was 8.01 µM; with RPMI-8226 leukemia, 0.532 µM. The TGI in the assay with SF-268 CNS came out at 6.57 µM; in the assay with SNB-19 CNS, 25.2 µM; with NCI-H522 lung it was 0.364 µM; in the assay with NCI/ADR-RES ovarian, 7.16 µM; with OVCAR-3 ovarian, 2.18 µM; in the assay with HOP-92 NSCLC, 3.05 µM. Besides, the TGI was found to be 2.48 µM in the assay on HCT-15 colon, 4.45 µM in the assay on HT29 colon, 22.4 µM in the assay on SF-295 CNS and 2.89 µM with RPMI-8226 leukemia.
With `COc1nc(C(Cl)(Cl)Cl)c(Cl)c(OC)c1Cl`, the GI50 with SF-268 CNS is above 52.2 µM; with SNB-19 CNS, above 40.8 µM; in the assay with OVCAR-3 ovarian, above 43.4 µM; in the assay on HOP-92 NSCLC it was above 40.4 µM; in the assay with HT29 colon it was above 57 µM; with RPMI-8226 leukemia, above 41.1 µM. In addition, the TGI in the assay on SF-268 CNS is > 92.1 µM and 72.2 µM; in the assay on SNB-19 CNS it was > 59.3 µM and 59.4 µM; in the assay with NCI-H522 lung, > 31.6 µM and 70.4 µM; in the assay on NCI/ADR-RES ovarian, 58.4 µM; with OVCAR-3 ovarian it was > 61.1 µM and 72.6 µM; in the assay on HOP-92 NSCLC, > 59.3 µM and 62 µM. The TGI with HCT-15 colon was 75.6 µM; with HT29 colon, 96.5 µM; in the assay with SF-295 CNS it was > 56.9 µM and 75.3 µM; in the assay with RPMI-8226 leukemia, > 62.9 µM and 112 µM.
As for `COc1cc2c(cc1OC)-c1c(c3ccc([N+](=O)[O-])cc3c(=O)n1CCCBr)C2=O`, the GI50 is 29 µM in the assay on SF-268 CNS; 33.3 µM with SNB-19 CNS; 6.41 µM with NCI-H522 lung; 5.91 µM in the assay with NCI/ADR-RES ovarian; 71.1 µM with OVCAR-3 ovarian; above 100 µM in the assay with HOP-92 NSCLC. For the same compound, the GI50 with HCT-15 colon is 61.8 µM; in the assay on HT29 colon it was 61.9 µM; with SF-295 CNS, 9.07 µM; in the assay with RPMI-8226 leukemia, 3.33 µM. In addition, the TGI in the assay with SF-268 CNS, with SNB-19 CNS, in the assay with NCI-H522 lung, with NCI/ADR-RES ovarian, in the assay with OVCAR-3 ovarian and in the assay on HOP-92 NSCLC was above 100 µM in each case. Besides, the TGI in the assay with HCT-15 colon, in the assay on HT29 colon, in the assay on SF-295 CNS and in the assay with RPMI-8226 leukemia was above 100 µM in each case.
With `COc1ccc(/C=C/c2cnnc3ccccc23)cc1OC`, the TGI with SF-268 CNS, in the assay with SNB-19 CNS, in the assay on NCI-H522 lung, in the assay with NCI/ADR-RES ovarian, in the assay on OVCAR-3 ovarian and in the assay on HOP-92 NSCLC was above 10 µM throughout. The TGI in the assay on HCT-15 colon, in the assay with HT29 colon, in the assay on SF-295 CNS and in the assay on RPMI-8226 leukemia was above 10 µM each time.
For `Nc1nc(N)c(N=Nc2ccc([As](=O)(O)O)c(O)c2)c(N)n1`, the TGI in the assay with SF-268 CNS was above 100 µM; in the assay with SNB-19 CNS it was above 100 µM; with NCI-H522 lung, above 31 µM; in the assay on NCI/ADR-RES ovarian it was above 100 µM; in the assay with OVCAR-3 ovarian, above 64.2 µM; in the assay on HOP-92 NSCLC it was above 100 µM. Moreover, the TGI with HCT-15 colon was above 100 µM; in the assay with HT29 colon, above 100 µM; in the assay with SF-295 CNS it was above 100 µM; in the assay on RPMI-8226 leukemia, above 33.8 µM.
In the case of `COc1cccc(-c2nn(C)c3sc(C(=O)NCCN4CCN(c5ccccc5F)CC4)cc23)c1`, the GI50 in the assay on SF-268 CNS was 46.9 µM; in the assay with SNB-19 CNS, 21 µM; in the assay on NCI-H522 lung, 18.8 µM; with NCI/ADR-RES ovarian it was 13.8 µM; in the assay on OVCAR-3 ovarian it was 20.6 µM; with HOP-92 NSCLC it was 13.4 µM. For the same compound, the GI50 is 3.18 µM with HCT-15 colon, 4.66 µM in the assay on HT29 colon, 4.85 µM with SF-295 CNS and 6.51 µM with RPMI-8226 leukemia. Further, the TGI in the assay on SF-268 CNS, with SNB-19 CNS, with NCI-H522 lung, in the assay with NCI/ADR-RES ovarian, in the assay on OVCAR-3 ovarian and in the assay on HOP-92 NSCLC was above 100 µM throughout. The TGI with HCT-15 colon was 15.5 µM; with HT29 colon it was 51.3 µM; in the assay on SF-295 CNS, 29 µM; in the assay on RPMI-8226 leukemia, above 100 µM.
Take `CCCCCCCCCCCC(=O)[O][Sn]([CH2]CCC)([CH2]CCC)[CH2]CCC`: the GI50 in the assay with SF-268 CNS was 0.0535 µM; with SNB-19 CNS, 0.0859 µM; in the assay on NCI-H522 lung, 0.0409 µM; in the assay with NCI/ADR-RES ovarian, 0.0703 µM; with OVCAR-3 ovarian it was 0.0518 µM; in the assay with HOP-92 NSCLC it was 0.0119 µM. Besides, the GI50 with HCT-15 colon was 0.0456 µM; in the assay on HT29 colon it was 0.0355 µM; in the assay with SF-295 CNS, 0.0679 µM; in the assay with RPMI-8226 leukemia it was 0.0228 µM. Further, the TGI in the assay on SF-268 CNS stood at 0.199 µM; with SNB-19 CNS, 0.228 µM; in the assay with NCI-H522 lung, 0.116 µM; in the assay with NCI/ADR-RES ovarian it was 0.236 µM; with OVCAR-3 ovarian, 0.125 µM; in the assay on HOP-92 NSCLC, 0.0728 µM. Also, the TGI in the assay on HCT-15 colon was 0.168 µM; in the assay with HT29 colon, 0.11 µM; in the assay with SF-295 CNS it was 0.177 µM; with RPMI-8226 leukemia it was 0.098 µM.
In the case of `COc1ccc(-c2nn(C(=O)c3cc(OC)c(OC)c(OC)c3)c3cc(N)ccc23)cc1`, the GI50 in the assay with SF-268 CNS was below 0.0148 µM; with SNB-19 CNS, below 0.0171 µM; in the assay with NCI-H522 lung it was below 0.01 µM; in the assay with NCI/ADR-RES ovarian, below 0.01 µM; with OVCAR-3 ovarian, below 0.01 µM; in the assay on HOP-92 NSCLC it was 1.86 µM. In addition, the GI50 was below 0.01 µM in the assay with HCT-15 colon, below 0.0142 µM in the assay with HT29 colon, below 0.01 µM in the assay with SF-295 CNS and below 0.018 µM in the assay on RPMI-8226 leukemia. For the same compound, the TGI with SF-268 CNS was 4.43 µM; with SNB-19 CNS it was above 100 µM; with NCI-H522 lung, 1.12 µM; in the assay on NCI/ADR-RES ovarian, 2.28 µM; in the assay on HOP-92 NSCLC, 25.8 µM; with HCT-15 colon, 7.21 µM. Also, the TGI turned out to be 1.13 µM in the assay on HT29 colon, 1.75 µM in the assay with SF-295 CNS and 1.84 µM in the assay on RPMI-8226 leukemia.
In the case of `O=P1(NCCCl)OCCC(OO)N1CCCl` (stereo not given), the TGI with SF-268 CNS was above 100 µM; in the assay with SNB-19 CNS it was above 100 µM; in the assay on NCI-H522 lung, 25.6 µM; with NCI/ADR-RES ovarian it was above 100 µM; with OVCAR-3 ovarian, 53 µM; in the assay on HOP-92 NSCLC, 33.4 µM. For the same compound, the TGI with HCT-15 colon was 33.9 µM; with HT29 colon, above 81.9 µM; with SF-295 CNS, above 100 µM; in the assay on RPMI-8226 leukemia it was above 100 µM.
